Test results reported in the supplement of paper PMC13380429.

Columns and labels:
Conditions in all cases: 72 h
Caco-2 [1] = assay: drug sensitivity score (DSS) for viability; higher = more toxic; extreme values may be limits of the assay
Calu-3 [2] = assay: as above
Vero E6 [3] = assay: as above
HepG2 [4] = assay: as above
U2OS [5] = assay: as above
Caco-2 [6] = assay: cell viability relative to DMSO; higher = less toxic
Calu-3 [7] = assay: as above
Vero E6 [8] = assay: as above
HepG2 [9] = assay: as above
U2OS [10] = assay: as above
Caco-2 [11] = assay: relative viability EC50 (midpoint between 100% and the lowest measured viability); higher = less toxic
Calu-3 [12] = assay: as above
Vero E6 [13] = assay: as above
HepG2 [14] = assay: as above
U2OS [15] = assay: as above

Structure (SMILES) | drug sensitivity score (Caco-2 [1]) | drug sensitivity score (Calu-3 [2]) | drug sensitivity score (Vero E6 [3]) | drug sensitivity score (HepG2 [4]) | drug sensitivity score (U2OS [5]) | cell viability (Caco-2 [6]; 1 nM) | cell viability (Caco-2 [6]; 10 nM) | cell viability (Caco-2 [6]; 100 nM) | cell viability (Caco-2 [6]; 1000 nM) | cell viability (Caco-2 [6]; 10000 nM) | cell viability (Calu-3 [7]; 1 nM) | cell viability (Calu-3 [7]; 10 nM) | cell viability (Calu-3 [7]; 100 nM) | cell viability (Calu-3 [7]; 1000 nM) | cell viability (Calu-3 [7]; 10000 nM) | cell viability (Vero E6 [8]; 1 nM) | cell viability (Vero E6 [8]; 10 nM) | cell viability (Vero E6 [8]; 100 nM) | cell viability (Vero E6 [8]; 1000 nM) | cell viability (Vero E6 [8]; 10000 nM) | cell viability (HepG2 [9]; 1 nM) | cell viability (HepG2 [9]; 10 nM) | cell viability (HepG2 [9]; 100 nM) | cell viability (HepG2 [9]; 1000 nM) | cell viability (HepG2 [9]; 10000 nM) | cell viability (U2OS [10]; 1 nM) | cell viability (U2OS [10]; 10 nM) | cell viability (U2OS [10]; 100 nM) | cell viability (U2OS [10]; 1000 nM) | cell viability (U2OS [10]; 10000 nM) | relative viability EC50 (Caco-2 [11]) | relative viability EC50 (Calu-3 [12]) | relative viability EC50 (Vero E6 [13]) | relative viability EC50 (HepG2 [14]) | relative viability EC50 (U2OS [15])
CS(=O)(=O)OCCCCOS(C)(=O)=O [busulfan] | 0.2 | 0 | 1.3 | 1.2 | 0 | 109% | 93.4% | 92.1% | 84.1% | 96.5% | 101% | 104% | 89.7% | 99.6% | 106% | 94.9% | 94.8% | 99.6% | 86.2% | 84.5% | 107% | 92.9% | 112% | 95.8% | 79.2% | 102% | 95.9% | 105% | 98.4% | 100% | > 10 µM | > 10 µM | > 10 µM | > 10 µM | > 10 µM
CO[C@@]1(NC(=O)CSC[C@@H](N)C(=O)O)C(=O)N2C(C(=O)O)=C(CSc3nnnn3C)CS[C@@H]21 [cefminox] | 0 | 0 | 0 | 0 | 0 | 106% | 103% | 91.5% | 103% | 98.5% | 116% | 99.8% | 105% | 94.5% | 122% | 93.7% | 103% | 99.3% | 104% | 97.8% | 108% | 116% | 96.6% | 98.1% | 92.1% | 96.6% | 98.8% | 102% | 104% | 101% | > 10 µM | > 10 µM | > 10 µM | > 10 µM | > 10 µM
CC(C)NCC(O)c1cc(O)cc(O)c1 (stereo not given) [metaproterenol] | 0 | 0 | 0 | 0 | 0 | 93.4% | 90.8% | 104% | 106% | 95.1% | 101% | 97.2% | 106% | 108% | 98% | 94.4% | 95.6% | 92.7% | 94.7% | 113% | 98.6% | 110% | 108% | 108% | 108% | 98.3% | 96.8% | 98.9% | 98.7% | 102% | > 10 µM | > 10 µM | > 10 µM | > 10 µM | > 10 µM
Clc1cccc(N2CCNCC2)c1 [mCPP] | 0 | 0 | 0 | 0 | 0 | 88.9% | 97% | 96.1% | 92.4% | 98.4% | 91.4% | 102% | 104% | 104% | 100% | 88.9% | 103% | 96.7% | 100% | 106% | 97.7% | 95.3% | 96% | 100% | 105% | 99.8% | 93.3% | 103% | 97.1% | 93.9% | > 10 µM | > 10 µM | > 10 µM | > 10 µM | > 10 µM
CN1CC[C@@H](NC(=O)Nc2ccc(C#N)cc2)C[C@@H]1c1nc2ccccc2[nH]1 [glasdegib] | 0.6 | 0 | 0 | 0 | 0 | 98.4% | 96.5% | 94.1% | 97.1% | 83.5% | 92.6% | 110% | 96.9% | 111% | 104% | 102% | 103% | 102% | 100% | 97.1% | 108% | 99% | 99.1% | 96.2% | 92% | 96.3% | 102% | 94.9% | 98.5% | 98.3% | > 10 µM | > 10 µM | > 10 µM | > 10 µM | > 10 µM
CC(=O)N[C@H]1[C@@H](OC(C)C)O[C@H](COC(C)=O)[C@@H](OC(C)=O)[C@@H]1OC(C)=O [C34] | 0 | 0 | 0 | 0 | 0 | 106% | 109% | 91.8% | 101% | 98.5% | 112% | 96.1% | 103% | 95.5% | 101% | 96.2% | 96.2% | 97.1% | 96.6% | 95.5% | 95.3% | 102% | 102% | 102% | 110% | 102% | 106% | 96.9% | 103% | 96.3% | > 10 µM | > 10 µM | > 10 µM | > 10 µM | > 10 µM
O[C@@H](Cc1ccncc1)C(Cl)(Cl)Cl [PETCM] | 0 | 0 | 0 | 0 | 0 | 99.4% | 95.8% | 103% | 98.7% | 105% | 98.8% | 89.8% | 114% | 95.3% | 110% | 94.7% | 97.1% | 96% | 102% | 98.2% | 101% | 103% | 95.2% | 99.3% | 97.8% | 98.8% | 93.3% | 99.1% | 93.3% | 99.1% | > 10 µM | > 10 µM | > 10 µM | > 10 µM | > 10 µM
